Results reported in ChEMBL document CHEMBL5257069, “Structure-activity relationship analysis of activity-based probes targeting HTRA family of serine proteases” (Bioorg Med Chem Lett, 2023).
Activity calls are given as the source filed them. The calls are words filed in the database; no cut-off is given here.

Experiments:
[1] = target: T1, Serine protease HTRA1 (Homo sapiens, UniProt Q92743); test: Inhibition of recombinant human HTRA1 using H2-OPT as substrate assessed as increase in fluorescence and measured for 2 hrs by fluorescent plate reader analysis
[2] = target: T2, Serine protease HTRA2, mitochondrial (Homo sapiens, UniProt O43464); test: Inhibition of recombinant human HTRA2 using H2-OPT as substrate assessed as increase in fluorescence and measured for 2 hrs by fluorescent plate reader analysis
T2 sequence (O43464 whole entry): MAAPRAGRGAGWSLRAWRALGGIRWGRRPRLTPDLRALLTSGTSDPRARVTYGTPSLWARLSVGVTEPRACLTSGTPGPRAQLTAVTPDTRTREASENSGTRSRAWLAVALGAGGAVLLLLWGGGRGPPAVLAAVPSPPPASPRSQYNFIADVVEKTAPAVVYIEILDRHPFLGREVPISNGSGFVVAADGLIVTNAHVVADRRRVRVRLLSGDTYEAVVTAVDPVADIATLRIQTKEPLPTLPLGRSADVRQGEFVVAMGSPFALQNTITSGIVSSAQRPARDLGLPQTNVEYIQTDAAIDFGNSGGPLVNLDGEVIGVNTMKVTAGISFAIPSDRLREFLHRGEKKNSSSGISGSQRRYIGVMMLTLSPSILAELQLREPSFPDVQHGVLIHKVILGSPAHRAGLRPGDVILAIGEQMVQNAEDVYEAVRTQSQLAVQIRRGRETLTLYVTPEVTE

[3] = target: Trypsin (Homo sapiens) (UniProt P07477+P07478+P35030); test: Binding affinity to recombinant human trypsin assessed as increase in fluorescence using H2-OPT as substrate at 1 uM by SDS-PAGE based gel fluorescence scanning analysis; assay type: protein assay
[4] = target: Chymotrypsin (Homo sapiens) (UniProt Q99895+P17538+P40313+Q6GPI1); test: Binding affinity to recombinant human chymotrypsin assessed as increase in fluorescence using H2-OPT as substrate at 1 uM by SDS-PAGE based gel fluorescence scanning analysis; assay type: protein assay
[5] = target: T3, Serine protease HTRA2, mitochondrial (Homo sapiens) (UniProt O43464); test: Binding affinity to recombinant human HTRA2 assessed as increase in fluorescence using H2-OPT as substrate at 1 uM by SDS-PAGE based gel fluorescence scanning analysis
T3 sequence (whole entry): T2 sequence (O43464 whole entry)

[6] = target: T4, Periplasmic serine endoprotease DegP (Escherichia coli (strain K12)) (UniProt P0C0V0); test: Binding affinity to recombinant Escherichia coli DegP assessed as increase in fluorescence using H2-OPT as substrate at 1 uM by SDS-PAGE based gel fluorescence scanning analysis
T4 sequence (whole entry): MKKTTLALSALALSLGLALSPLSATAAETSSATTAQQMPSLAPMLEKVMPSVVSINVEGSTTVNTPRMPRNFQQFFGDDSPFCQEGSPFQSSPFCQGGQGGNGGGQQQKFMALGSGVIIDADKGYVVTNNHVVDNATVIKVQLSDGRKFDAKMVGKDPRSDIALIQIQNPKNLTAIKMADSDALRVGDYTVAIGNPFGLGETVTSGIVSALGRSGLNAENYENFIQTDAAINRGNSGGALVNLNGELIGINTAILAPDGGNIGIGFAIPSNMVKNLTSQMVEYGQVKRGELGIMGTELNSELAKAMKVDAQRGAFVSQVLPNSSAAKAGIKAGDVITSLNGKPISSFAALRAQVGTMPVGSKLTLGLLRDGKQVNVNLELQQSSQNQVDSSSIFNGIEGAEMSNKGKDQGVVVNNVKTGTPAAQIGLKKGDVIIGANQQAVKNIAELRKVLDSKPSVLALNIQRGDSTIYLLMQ

[7] = target: T5, Neutrophil elastase (Homo sapiens) (UniProt P08246); test: Binding affinity to recombinant human neutrophil elastase assessed as increase in fluorescence using H2-OPT as substrate at 1 uM by SDS-PAGE based gel fluorescence scanning analysis; assay type: single protein
T5 sequence (whole entry): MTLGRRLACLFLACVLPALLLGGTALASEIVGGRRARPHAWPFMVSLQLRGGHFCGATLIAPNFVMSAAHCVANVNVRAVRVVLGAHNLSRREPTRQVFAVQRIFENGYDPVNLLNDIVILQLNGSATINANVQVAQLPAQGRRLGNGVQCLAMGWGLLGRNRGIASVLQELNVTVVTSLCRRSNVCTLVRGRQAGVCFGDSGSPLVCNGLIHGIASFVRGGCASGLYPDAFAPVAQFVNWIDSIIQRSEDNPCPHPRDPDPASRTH

[8] = target: T1, Serine protease HTRA1; test: Binding affinity to human HTRA1 in human U-87 MG cells assessed as appearance of fluorescent bands at 5 uM by SDS-PAGE based In-gel fluorescence analysis; assay type: cell-based
[9] = target: T1, Serine protease HTRA1; test: Binding affinity to recombinant human HTRA1 in human serum assessed as appearance of fluorescent bands at 2 uM by In-gel fluorescence analysis; assay type: cell-free
[10] = target: Albumin (Homo sapiens, UniProt P02768); test: Binding affinity to human serum albumin assessed as appearance of fluorescent bands at 2 uM by SDS-PAGE based In-gel fluorescence analysis
[11] = target: T1, Serine protease HTRA1; test: Binding affinity to human HTRA1 in Amyloid-beta treated human U-87 MG cells assessed as appearance of fluorescent bands at 5 uM by SDS-PAGE based In-gel fluorescence analysis; assay type: cell-based
[12] = target: T3, Serine protease HTRA2, mitochondrial (Homo sapiens); test: Inhibition of recombinant human HTRA2 using H2-OPT as substrate assessed as increase in fluorescence at 1 uM and measured for 2 hrs by fluorescent plate reader analysis
[13] = target: T1, Serine protease HTRA1; test: Inhibition of recombinant human HTRA1 using H2-OPT as substrate assessed as increase in fluorescence at 1 uM and measured for 2 hrs by fluorescent plate reader analysis
[14] = target: T4, Periplasmic serine endoprotease DegP (Escherichia coli (strain K12)); test: Binding affinity to Escherichia coli DegP assessed as appearance of fluorescent bands at 1 to 50 uM incubated for 1 hrs by SDS-PAGE based gel fluorescence scanning analysis; details: dose 1-50 µM
[15] = target: T4, Periplasmic serine endoprotease DegP (Escherichia coli (strain K12)); test: Binding affinity to Escherichia coli DegP assessed as appearance of fluorescent bands at 10 uM incubated for 2 hrs by SDS-PAGE based gel fluorescence scanning analysis
[16] = target: Albumin (Bos taurus, UniProt P02769); test: Binding affinity to bovine serum albumin in human U-87 MG cell culture media assessed as appearance of fluorescent bands at 5 uM by SDS-PAGE based In-gel fluorescence analysis; details: cattle
Chain of Albumin (Bos taurus, UniProt P02769) (P02769 whole entry): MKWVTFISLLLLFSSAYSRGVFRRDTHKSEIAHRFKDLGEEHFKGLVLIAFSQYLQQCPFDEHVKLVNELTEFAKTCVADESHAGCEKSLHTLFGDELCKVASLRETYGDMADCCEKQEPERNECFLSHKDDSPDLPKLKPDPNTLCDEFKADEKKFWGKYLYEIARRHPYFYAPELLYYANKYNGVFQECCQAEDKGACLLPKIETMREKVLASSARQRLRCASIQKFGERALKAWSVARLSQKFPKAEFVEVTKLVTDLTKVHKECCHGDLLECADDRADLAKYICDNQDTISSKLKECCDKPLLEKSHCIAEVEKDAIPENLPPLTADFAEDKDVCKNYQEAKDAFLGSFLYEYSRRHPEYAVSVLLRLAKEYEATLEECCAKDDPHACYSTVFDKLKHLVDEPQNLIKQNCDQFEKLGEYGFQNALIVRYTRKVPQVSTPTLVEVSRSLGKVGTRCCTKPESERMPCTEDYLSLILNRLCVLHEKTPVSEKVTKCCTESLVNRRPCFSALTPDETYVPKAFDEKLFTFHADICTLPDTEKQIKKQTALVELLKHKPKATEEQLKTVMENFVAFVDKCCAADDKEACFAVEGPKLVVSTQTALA

T1 sequence (Q92743 whole entry): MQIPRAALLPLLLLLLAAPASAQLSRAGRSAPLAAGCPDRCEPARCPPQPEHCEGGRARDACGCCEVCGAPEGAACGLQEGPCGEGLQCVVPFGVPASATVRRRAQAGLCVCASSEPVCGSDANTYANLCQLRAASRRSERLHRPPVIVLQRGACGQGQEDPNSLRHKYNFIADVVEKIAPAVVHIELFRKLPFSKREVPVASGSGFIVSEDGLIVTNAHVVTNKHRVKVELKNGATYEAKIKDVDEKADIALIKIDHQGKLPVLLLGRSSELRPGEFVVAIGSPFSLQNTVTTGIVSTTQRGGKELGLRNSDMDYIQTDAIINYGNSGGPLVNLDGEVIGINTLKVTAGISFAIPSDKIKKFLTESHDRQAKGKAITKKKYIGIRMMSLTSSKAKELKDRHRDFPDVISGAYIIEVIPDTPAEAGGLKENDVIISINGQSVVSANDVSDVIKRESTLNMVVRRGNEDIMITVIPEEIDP
Chain of Albumin (Homo sapiens, UniProt P02768) (P02768 whole entry): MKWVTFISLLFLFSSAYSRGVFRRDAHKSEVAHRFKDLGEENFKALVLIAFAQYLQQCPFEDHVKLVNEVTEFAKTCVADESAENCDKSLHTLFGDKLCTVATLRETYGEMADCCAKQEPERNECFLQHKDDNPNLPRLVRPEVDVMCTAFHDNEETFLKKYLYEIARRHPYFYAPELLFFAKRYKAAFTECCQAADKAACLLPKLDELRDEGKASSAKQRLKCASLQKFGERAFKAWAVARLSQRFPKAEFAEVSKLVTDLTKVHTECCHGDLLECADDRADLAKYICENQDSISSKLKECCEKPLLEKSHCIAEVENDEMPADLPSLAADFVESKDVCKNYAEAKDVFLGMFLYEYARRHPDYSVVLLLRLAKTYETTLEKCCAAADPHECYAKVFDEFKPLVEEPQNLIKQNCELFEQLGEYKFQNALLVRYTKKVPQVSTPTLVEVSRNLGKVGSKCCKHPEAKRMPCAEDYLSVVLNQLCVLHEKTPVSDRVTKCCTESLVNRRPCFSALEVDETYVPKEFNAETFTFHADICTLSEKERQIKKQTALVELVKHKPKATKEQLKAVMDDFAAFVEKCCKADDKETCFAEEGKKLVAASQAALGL

Row | Compound | IC50 [2] | Activity [4] | Activity [5] | Activity [6] | Activity [7] | other results
1 | O=C1C(=Cc2ccc(-c3ccccc3[N+](=O)[O-])o2)C(=O)N(c2ccccc2)C(=S)N1c1ccccc1 | 18 µM |  |  |  |  | IC50 [1]: > 50 µM
2 | CC(C)C[C@H](NC(=O)CCCCCNC(=O)c1ccc(C(=O)O)c(-c2c3ccc(=O)cc-3oc3cc(O)ccc23)c1)C(=O)N[C@@H](Cc1ccccc1)C(=O)NC1(C(=O)N[C@@H](C(C)C)P(=O)(Oc2ccccc2)Oc2ccccc2)CC1 |  | inactive | inactive | inactive | inactive | Activity [3]: inactive
3 | CC(C)[C@H](NC(=O)C1(NC(=O)[C@H](CCCCN)NC(=O)[C@H](Cc2ccccc2)NC(=O)CCCCCNC(=O)c2ccc(C(=O)O)c(-c3c4ccc(=O)cc-4oc4cc(O)ccc34)c2)CC1)P(=O)(Oc1ccccc1)Oc1ccccc1 |  | inactive | inactive | inactive | inactive | Activity [3]: inactive
4 | CC(C)C[C@H](NC(=O)[C@H](CCCCN)NC(=O)[C@H](Cc1ccccc1)NC(=O)CCCCCNC(=O)c1ccc(C(=O)O)c(-c2c3ccc(=O)cc-3oc3cc(O)ccc23)c1)C(=O)N[C@@H](C(C)C)P(=O)(Oc1ccccc1)Oc1ccccc1 | 24 µM |  |  | Active |  | 
5 | CC(C)C[C@H](NC(=O)CCCCCNC(=O)c1ccc(C(=O)O)c(-c2c3ccc(=O)cc-3oc3cc(O)ccc23)c1)C(=O)N[C@@H](Cc1ccccc1)C(=O)N[C@@H](CC(C)C)C(=O)N[C@@H](C(C)C)P(=O)(Oc1ccccc1)Oc1ccccc1 | 7.8 µM |  |  |  |  | Activity [8]: Active; IC50 [1]: 2 µM; Activity [9]: Active; Activity [10]: Not Active
6 | CC(C)C[C@H](NC(=O)C1(NC(=O)[C@H](CCCCN)NC(=O)[C@H](Cc2ccccc2)NC(=O)CCCCCNC(=O)c2ccc(C(=O)O)c(-c3c4ccc(=O)cc-4oc4cc(O)ccc34)c2)CC1)P(=O)(Oc1ccccc1)Oc1ccccc1 |  | inactive | inactive | inactive | inactive | Activity [3]: inactive
7 | CC[C@H](NC(=O)[C@H](CCCCN)NC(=O)[C@H](Cc1ccccc1)NC(=O)CCCCCNC(=O)c1ccc(C(=O)O)c(-c2c3ccc(=O)cc-3oc3cc(O)ccc23)c1)C(=O)N[C@@H](CC(C)C)P(=O)(Oc1ccccc1)Oc1ccccc1 |  |  |  | inactive |  | 
8 | CC(C)[C@H](NC(=O)[C@H](CC1CC1)NC(=O)[C@H](CCCCN)NC(=O)[C@H](Cc1ccccc1)NC(=O)CCCCCNC(=O)c1ccc(C(=O)O)c(-c2c3ccc(=O)cc-3oc3cc(O)ccc23)c1)P(=O)(Oc1ccccc1)Oc1ccccc1 | 8.3 µM |  | Active |  |  | Activity [8]: Active; Activity [11]: Active; IC50 [1]: 6.3 µM; Activity [9]: Active; Activity [10]: Not Active
9 | CC(C)C[C@H](NC(=O)[C@H](CCCCN)NC(=O)[C@H](Cc1ccc2ccccc2c1)NC(=O)CCCCCNC(=O)c1ccc(C(=O)O)c(-c2c3ccc(=O)cc-3oc3cc(O)ccc23)c1)C(=O)N[C@@H](C(C)C)P(=O)(Oc1ccccc1)Oc1ccccc1 | 12 µM | Active | Active |  | Active | 
10 | CC(C)C[C@H](NC(=O)CCCCCNC(=O)c1ccc(C(=O)O)c(-c2c3ccc(=O)cc-3oc3cc(O)ccc23)c1)C(=O)N[C@@H](Cc1ccc2ccccc2c1)C(=O)N[C@@H](CC(C)C)C(=O)N[C@@H](C(C)C)P(=O)(Oc1ccccc1)Oc1ccccc1 | 5.4 µM | Active | Active | inactive | Active | 
11 | NCCc1ccc(S(=O)(=O)F)cc1 | > 1000 µM |  |  |  |  | inhibition [12]: 20%; IC50 [1]: > 1000 µM; inhibition [13]: 20%
12 | CC[C@H](NC(=O)[C@H](CCCCN)NC(=O)[C@H](Cc1ccccc1)NC(=O)CCCCCNC(=O)c1ccc(C(=O)O)c(-c2c3ccc(=O)cc-3oc3cc(O)ccc23)c1)C(=O)N[C@@H](C(C)C)P(=O)(Oc1ccccc1)Oc1ccccc1 | 27 µM |  |  | Active |  | Activity [14]: Dose-Dependent Effect; Activity [15]: Active
13 | CC(C)[C@H](NC(=O)[C@H](CC(C)(C)C)NC(=O)[C@H](CCCCN)NC(=O)[C@H](Cc1ccccc1)NC(=O)CCCCCNC(=O)c1ccc(C(=O)O)c(-c2c3ccc(=O)cc-3oc3cc(O)ccc23)c1)P(=O)(Oc1ccccc1)Oc1ccccc1 |  |  |  | inactive |  | 
14 | CC(C)C[C@H](NC(=O)CCCCCNC(=O)c1ccc(C(=O)O)c(-c2c3ccc(=O)cc-3oc3cc(O)ccc23)c1)C(=O)N[C@@H](Cc1ccccc1)C(=O)N[C@@H](CC(C)(C)C)C(=O)N[C@@H](C(C)C)P(=O)(Oc1ccccc1)Oc1ccccc1 | 8.1 µM |  | Active | inactive |  | 
15 | CC(C)C[C@H](NC(=O)[C@H](CCCCN)NC(=O)[C@H](Cc1ccc2ccccc2c1)NC(=O)CCCCCNC(=O)c1ccc(C(=O)O)c(-c2c3ccc(=O)cc-3oc3cc(O)ccc23)c1)C(=O)N[C@@H](CC(C)C)P(=O)(Oc1ccccc1)Oc1ccccc1 |  | Active | Active |  | Active | 
16 | CC(C)C[C@H](NC(=O)CCCCCNC(=O)c1ccc(C(=O)O)c(-c2c3ccc(=O)cc-3oc3cc(O)ccc23)c1)C(=O)N[C@@H](Cc1ccccc1)C(=O)N[C@@H](CC1CC1)C(=O)N[C@@H](C(C)C)P(=O)(Oc1ccccc1)Oc1ccccc1 | 5.2 µM |  | Active | inactive |  | Activity [16]: Active
